Laboratory results published in patent US4187373A, “Novel dihydrobenzanthracene derivatives” (American Cyanamid Company, priority 1978, dated 1980).
“And” between values parts separate entries of the source, which are not always exact repeats. Equal entries are not always repeated. Structures can show the parent of a compound that is named as a salt.

What was measured:
[1] = test system: lymphocytic leukemia P388; assay: Lymphocytic Leukemia P388 Test; assay type: in vivo, mice
Method: The animals used are mice all of one sex, weighing a minimum of 17 g. and all within a 3 gram weight range. There are 5 or 6 animals per test group. The tumor transplant is by intraperitoneal injection of 0.1 ml. or 0.5 ml. of dilute ascitic fluid containing 10^6 cells of lymphocytic leukemia P388. The test compounds are administered intraperitoneally on days one, 5 and 9 (relative to tumor inoculation) at various doses. The animals are weighed and survivors are recorded on a regular basis for 30 days. The median survival time and the ratio of survival time for treated (T)/control (C) animals are calculated. […] The results of this test with representative compounds of the present invention appear in Table II below. The criterion for efficacy is T/C×100≥125%.

[2] = test system: Staphylococcus aureus, St. Paul (NYC 78-1); assay: antibacterial activity in vitro, agar-dilution streak-plate technique; assay type: cell-based; conditions: 37° C. for 18 hours, read-out: minimal inhibitory concentration (MIC)
Method: (§1) The antibacterial spectrum in terms of the concentration required to inhibit the growth of various typical bacteria was determined in a standard manner by the agar-dilution streak-plate technique. A Steers multiple inocula replicator was used with incubation at 37° C. for 18 hours in Mueller-Ninton agar. The results for 7,12-bis-(2-imidazolin-2-ylhydrazone)benz[a]anthracene-7,12-dicarboxaldehyde dihydrochloride, a typical compound of this invention, are set forth in Table I as the minimal inhibitory concentration (MIC) in micrograms per milliliter.

Enterococcus, SM 77-15 = assay: as above; assay type: cell-based; conditions: SM7715, 37° C. for 18 hours, read-out: minimal inhibitory concentration (MIC)
Method: as §1

[3] = test system: Staphylococcus aureus, OSU 75-2; assay: as above; assay type: cell-based; conditions: OSU752, 37° C. for 18 hours, read-out: minimal inhibitory concentration (MIC)
Method: as §1

[4] = test system: Staphylococcus aureus, Q 74-11; assay: as above; assay type: cell-based; conditions: Q7411, 37° C. for 18 hours, read-out: minimal inhibitory concentration (MIC)
Method: as §1

[5] = test system: melanotic melanoma B16 tumor; assay: Melanotic Melanoma B16; assay type: in vivo, C57BC/6 mice
Method: The animals used are C57BC/6 mice, all of the same sex, weighing a minimum of 17 g. and all within a 3 g. weight range. There are normally 10 animals per test group. A one-gram portion of melanotic melanoma B16 tumor is homogenized in 10 ml. of cold balanced salt solution and a 0.5 ml. aliquot of the homogenate is implanted intraperitoneally into each of the test mice. The test compounds are administered intraperitoneally on days one through 9 (relative to tumor inoculation) at various doses. The animals are weighed and survivors are recorded on a regular basis for 60 days. The median survival time and the ratio of survival time for treated (T)/control (C) animals are calculated. The positive control compound is 5-fluorouracil given as a 20 mg./kg. injection. The results of this test with a representative compound of the present invention appear in Table III below. The criterion for efficacy is T/C×100≥125%.

[6] = P388, dose 1.56 mg./kg. intraperitoneally on days one, 5 and 9
[7] = P388, dose 3.12 mg./kg. intraperitoneally on days one, 5 and 9
[8] = P388, dose 6.25 mg./kg. intraperitoneally on days one, 5 and 9
[9] = P388, dose 12.5 mg./kg. intraperitoneally on days one, 5 and 9
[10] = P388, dose 25 mg./kg. intraperitoneally on days one, 5 and 9
[11] = P388, dose 0.78 mg./kg. intraperitoneally on days one, 5 and 9
[12] = P388, dose 1.56 mg./kg. intraperitoneally on days one, 5 and 9, dihydrochloride
[13] = P388, dose 3.12 mg./kg. intraperitoneally on days one, 5 and 9, dihydrochloride
[14] = P388, dose 6.25 mg./kg. intraperitoneally on days one, 5 and 9, dihydrochloride
[15] = P388, dose 12.5 mg./kg. intraperitoneally on days one, 5 and 9, dihydrochloride
[16] = P388, dose 25 mg./kg. intraperitoneally on days one, 5 and 9, dihydrochloride
[17] = B16, dose 0.2 mg./kg. intraperitoneally on days one through 9
[18] = B16, dose 0.5 mg./kg. intraperitoneally on days one through 9
[19] = B16, dose 1.5 mg./kg. intraperitoneally on days one through 9
[20] = B16, dose 3 mg./kg. intraperitoneally on days one through 9
[21] = B16, positive control, dose 20 mg./kg.
[22] = P388, positive control, dose 40 mg./kg.
[23] = P388, positive control, dose 60 mg./kg.

| Compound | Median Survival [1, 6] [days] | T/C × 100 (Percent) [1, 6] [%] | Median Survival [1, 7] [days] | T/C × 100 (Percent) [1, 7] [%] | Median Survival [1, 8] [days] | T/C × 100 (Percent) [1, 8] [%] | Median Survival [1, 9] [days] | T/C × 100 (Percent) [1, 9] [%] | Median Survival [1, 11] [days] | T/C × 100 (Percent) [1, 11] [%] | also measured |
| --- | --- | --- | --- | --- | --- | --- | --- | --- | --- | --- | --- |
| C(=NNC1=NCCN1)C1c2ccccc2C(C=NNC2=NCCN2)c2c1ccc1ccccc21 (stereo not drawn) [Bis(2-imidazolin-2-ylhydrazone)-7,12-dihydro-benz[a]anthracene dicarboxaldehyde] | 14.5 | 132 | 14 | 127 | 16 | 145 | 18 | 164 | – | – | Median Survival [1, 10]: 20 days; T/C × 100 (Percent) [1, 10]: 182% |
| C(=NNC1=NCCN1)c1c2ccccc2c(C=NNC2=NCCN2)c2c1ccc1ccccc12 [Bis(2-imidazolin-2-ylhydrazone)-7,12-benz[a]anthracene dicarboxaldehyde dihydrochloride] | 16.0 | 160 | 17.5 | 175 | 19.0 | 190 | 19.0 | 190 | 15.0 | 150 | MIC [2]: 8 mg/L; MIC (Enterococcus, SM 77-15): 8 mg/L; MIC [3]: 16 mg/L; MIC [4]: 8 mg/L |
| C(=NNC1=NCCN1)C1c2ccccc2C(C=NNC2=NCCN2)c2c1ccc1ccccc21 (stereo not drawn) [Bis(2-imidazolin-2-ylhydrazone) of 7,12-dihydrobenz[a]anthracene-7,12-dicarboxaldehyde dihydrochloride] | – | – | – | – | – | – | – | – | 13.0 | 130 | Median Survival [1, 12]: 13.5 days; T/C × 100 (Percent) [1, 12]: 135%; Median Survival [1, 13]: 16.5 days; T/C × 100 (Percent) [1, 13]: 165%; Median Survival [1, 14]: 16.5 days; T/C × 100 (Percent) [1, 14]: 165%; Median Survival [1, 15]: 17.5 days; T/C × 100 (Percent) [1, 15]: 175%; Median Survival [1, 16]: 17 days; T/C × 100 (Percent) [1, 16]: 170% |
| C(=NNC1=NCCN1)c1c2ccccc2c(C=NNC2=NCCN2)c2c1ccc1ccccc12 [Bis(2-imidazolin-2-ylhydrazone) of benz[a]anthracene-7,12-dicarboxaldehyde] | – | – | – | – | – | – | – | – | – | – | Median Survival [5, 17]: 22.0 days; T/C × 100 (Percent) [5, 17]: 133%; Median Survival [5, 18]: 25.0 days; T/C × 100 (Percent) [5, 18]: 152%; Median Survival [5, 19]: 30.5 days; T/C × 100 (Percent) [5, 19]: 185%; Median Survival [5, 20]: 31.0 days; T/C × 100 (Percent) [5, 20]: 188% |
| C(=NNC1=NCCN1)c1c2ccccc2c(C=NNC2=NCCN2)c2cc3ccccc3cc12 [Bis(2-imidazolin-2-ylhydrazone)-5,12-benz[b]anthracene dicarboxaldehyde dihydrochloride] | 15.5 | 135 | 18.0 | 157 | 18.5 | 161 | 22.0 | 191 | 15.0 | 130 | – |
| O=c1[nH]cc(F)c(=O)[nH]1 [5-Fluorouracil, 5-fluorouracil, reference compound] | – | – | – | – | – | – | – | – | – | – | Median Survival [5, 21]: 25.5 days; T/C × 100 (Percent) [5, 21]: 155%; Median Survival [1, 22]: 18 days and 18.5 days; T/C × 100 (Percent) [1, 22]: 164% and 154%; Median Survival [1, 23]: 12.5 days and 20.0 days; T/C × 100 (Percent) [1, 23]: 109% and 200% |
